Assay results from patent US4442031A, “Immunopotentiating peptides” (Hoffmann-La Roche Inc., priority 1983, dated 1984).
Where no end group is shown, it is not given here.

Key:
Format in all cases: in vivo
[1] = system: Pseudomonas aeruginosa 5E81-1; assay: Protection against Pseudomonas aeruginosa infection in 5-FU immunosuppressed mice; details: for Survivors at Day 15 after infection: Table 7, i.p., 5-FU immunosuppressed mice, control 0/30
Procedure: (§1) Normal mice (female ddY mice, 6 weeks old) were highly tolerant to infection with Candida albicans ATCC 10231 at relatively low dose (1-2×10^5 cells, iv.). However, when pretreated daily for ten times with 5-FU (25 mg/kg/day, ip.), the mice were susceptible to infection as shown in Table 6. […] Compound A was also shown to be active against infection with Pseudomonas aeruginosa 5E81-1 and Listeria monocytogenes EGD in the immunosuppressed mice (see Tables 7 and 8).

[2] = system: Listeria monocytogenes EGD; assay: Protection against Listeria monocytogenes infection in 5-FU immunosuppressed mice; details: for Survivors at Day 15 after infection: Table 8, i.p., 5-FU immunosuppressed mice, control 2/10
Procedure: as §1

[3] = system: delayed-type hypersensitivity (DTH); assay: Restoration of delayed-type hypersensitivity (DTH) decreased by 5-FU in BDF1 mice; details: for DTH response %: % of control
Procedure: A poor prognosis is often observed in cancer patients with impaired immune response. Impaired immune response can be caused by the cancer itself, by chemotherapeutic agents, or by radiotherapy. Thus, therapeutic agents which restore impaired immune response in cancer patients are expected to play an important role in combination therapy. The restoration activity of the compounds of the invention on impaired cell-mediated immunity was determined by measuring the enhancement of delayed-type hypersensitivity (DTH), which was decreased to a great extent in mice treated with 5-fluorouracil (5-FU).
Female BDF1 mice (20-22 g, 11-12 weeks old) received (i.p. or p.o.) the compound to be tested on consecutive days one day before, concurrently with and 1 and 2 days after the 5-FU treatment. For DTH measurement, 10^8 chicken red blood cells (CRBC) were injected i.p. (or s.c. into the left hind footpad) and challenged s.c. into the right hind footpad at 3 and 7 days after the 5-FU treatment, respectively. Restoration activity was calculated by the following formula from the DTH response observed in the control group, 5-FU treated group treatment and the Test group treated both with 5-FU and the compound of the invention. Restoration activity was calculated by the formula: [formula]

[4] = system: Candida albicans ATCC 10231; assay: Protective activity against Candida albicans infection in 5-FU immunosuppressed mice; details: for Survivors Day 8 / Survivors Day 15: ddY mice; for Survivors at Day 8 after infection: Table 6, i.p., ten times with 5-FU, control 1/7
Procedure: In a series of examples, the compounds of formula I were tested for protective activity against opportunistic infections in immunosuppressed mice. Female ddY mice (6 weeks old) weighing about 26 g were pretreated daily for ten days with 5-fluorouracil (5-FU) (25 mg/kg/day, i.p.) and with thymosin α1 or with compounds of formula I (i.p.) at varying dosages. The mice were then infected with Candida albicans ATCC 10231 (1×10^5 cells or more) at 24 hour after the last treatment. One control group was administered 5-FU and saline solution and a second control group received neither 5-FU nor compound of formula I prior to infection with Candida albicans. The number of animals surviving eight days after infection with Candida albicans and 15 days after infection with Candida albicans is presented in the table below.
as §1

[5] = system: Listeria monocytogenes EGD; assay: Growth of Listeria monocytogenes in liver of P388 tumor-bearing mice; details: for Growth of Bacteria (log10 /liver): Tumor-bearing CDF1 mice, i.p., seven times before infection, 3 days after infection, control 7.1
Excerpt: The immunocompetence of tumor-bearing mice is known to be frequently deficient. This is illustrated by the fact that Listeria monocytogenes EGD grew considerably in tumor-bearing mice as compared to normal mice (see Table 9). Male CDF1 mice (6 weeks old) transplanted with P388 leukemia (3×10^5 cells, footpad) were infected with Listeria monocytogenes (2×10^3 cells, iv.) 7 days after the transplant. Three days thereafter the number of the bacteria grown in liver was counted.

P388 leukemia = assay: Protective activity against P388 leukemia growth in 5-FU immunosuppressed mice; details: for Mean Survival days (days ± S.D.): CDF1 mice, 5-FU +, P388 +, 5-FU + saline 4.1
Procedure: The treatment with cytostatic agents often decreases immunocompetence and consequently increases incidence of metastasis of tumor in cancer patients. […] In the experiment shown in Table 10, male CDF1 mice (6 week old) were treated daily for 8 times with or without 5-FU (28 mg/kg/day ip.) and then transplanted subcutaneously with P388 leukemic cells (3×10^5) into footpad 24 hours later. When pretreated with 5-FU, mice died very quickly at 4 days, while normal mice survived about 23 days after the transplant. […] Thymosin α1 and compound A may improve the immunodefense system against metastatic tumor growth in cancer patients who are receiving immunosuppressive chemotherapy. In combination with thymosin α1 or compound A, more extensive cancer chemotherapy for a longer duration may be possible.
^(1) CDF1 mice were pretreated daily for 8 times from Day 8 to
with 5FU (28 mg/kg/day, ip.).
^(2) Thymosin α1 or Compound A were administered daily for
14 times from Day 8 to 5 by ip. route.
^(3) P388 leukemic cells (3 × 10^5) were inoculated into
^(4) Survival days after the inoculation of the leukemic cells.

[6] = Table 2, 5-FU plus 0.05 μg/kg/day, i.p.
[7] = Table 2, 5-FU plus 0.5 μg/kg/day, i.p.
[8] = Table 2, 5-FU plus 5.0 μg/kg/day, i.p.
[9] = Table 3, second experiment, 5-FU plus 0.5 μg/kg/day, i.p.
[10] = Table 4, 5-FU plus 0.5 μg/kg/day p.o.
[11] = Table 4, 5-FU plus 5.0 μg/kg/day p.o.
[12] = Table 4, 5-FU plus 50.0 μg/kg/day p.o.
[13] = Example 8, 0.4 μg/kg i.p. daily for ten days with 5-FU
[14] = Example 8, 4.0 μg/kg i.p. daily for ten days with 5-FU
[15] = Example 8, 40.0 μg/kg i.p. daily for ten days with 5-FU
[16] = Example 10, 0.04 μg/kg i.p. daily for ten days with 5-FU
[17] = Example 10, 0.4 μg/kg i.p. daily for ten days with 5-FU
[18] = Example 10, 4.0 μg/kg i.p. daily for ten days with 5-FU
[19] = Example 11, 0.04 μg/kg i.p. daily for ten days with 5-FU
[20] = Example 11, 0.4 μg/kg i.p. daily for ten days with 5-FU
[21] = Example 11, 4.0 μg/kg i.p. daily for ten days with 5-FU

KKEVVE [Compound A, L-Lysyl-L-lysyl-L-glutamyl-L-valyl-L-valyl-L-glutamic acid]
Survivors at Day 15 after infection ([1]; 0.04 μg/kg/day): 5/20
Survivors at Day 15 after infection ([1]; 0.4 μg/kg/day): 12/30
Survivors at Day 15 after infection ([1]; 4 μg/kg/day): 7/30
activity against infection (in words) ([1]; immunosuppressed mice): active
Survivors at Day 15 after infection ([2]; 0.04 μg/kg/day): 8/10
Survivors at Day 15 after infection ([2]; 0.4 μg/kg/day): 6/10
Survivors at Day 15 after infection ([2]; 4 μg/kg/day): 6/10
activity against infection (in words) ([2]; immunosuppressed mice): active
Restoration Activity(%) [3, 6]: 34.4%
DTH response % [3, 6]: 70.7%
DTH response av. ± S.E. (0.1 mm) ([3]; Table 2, 5-FU plus 0.05 μg/kg/day, i.p., control 10.3, 5-FU alone 5.7): 7.3 ± 0.9 0.1 mm
Restoration Activity(%) [3, 7]: 66.6%
DTH response % [3, 7]: 84.8%
DTH response av. ± S.E. (0.1 mm) ([3]; Table 2, 5-FU plus 0.5 μg/kg/day, i.p., control 10.3, 5-FU alone 5.7): 8.7 ± 1.2 0.1 mm
Restoration Activity(%) [3, 8]: 56.6%
DTH response % [3, 8]: 80.7%
DTH response av. ± S.E. (0.1 mm) ([3]; Table 2, 5-FU plus 5.0 μg/kg/day, i.p., control 10.3, 5-FU alone 5.7): 8.3 ± 0.8 0.1 mm
DTH response av. ± S.E. (0.1 mm) ([3]; Table 3, second experiment (control 15.1, 5-FU alone 8.1), 5-FU plus 0.5 μg/kg/day, i.p.): 10.8 ± 0.8 0.1 mm
Restoration Activity(%) [3, 9]: 39.1%
DTH response % [3, 9]: 71.6%
DTH response av. ± S.E. (0.1 mm) ([3]; Table 4 (control 7.7, 5-FU alone 5.6), 5-FU plus 0.5 μg/kg/day p.o.): 5.4 ± 0.9 0.1 mm
DTH response av. ± S.E. (0.1 mm) ([3]; Table 4 (control 7.7, 5-FU alone 5.6), 5-FU plus 5.0 μg/kg/day p.o.): 5.9 ± 1.0 0.1 mm
DTH response av. ± S.E. (0.1 mm) ([3]; Table 4 (control 7.7, 5-FU alone 5.6), 5-FU plus 50.0 μg/kg/day p.o.): 8.7 ± 1.2 0.1 mm
Restoration Activity(%) [3, 10]: 0%
DTH response % [3, 10]: 70.1%
Restoration Activity(%) [3, 11]: 14.3%
DTH response % [3, 11]: 76.6%
Restoration Activity(%) [3, 12]: 147.6%
DTH response % [3, 12]: 113%
DTH restoration activity (in words) ([3]; administered orally, Table 4): active when administered orally
DTH restoration activity (in words) ([3]; i.p., Tables 2 and 3): equal or in some instances, greater activity than did thymosin α1 at lower doses
Survivors Day 8 [4, 13]: 6/7
Survivors Day 15 [4, 13]: 5/7
Survivors Day 8 [4, 14]: 5/7
Survivors Day 15 [4, 14]: 4/7
Survivors Day 8 [4, 15]: 5/7
Survivors Day 15 [4, 15]: 2/7
Survivors Day 8 ([4]; Example 9, 0.4 μg/kg i.p. daily for ten days with 5-FU): 6/7
Survivors Day 8 ([4]; Example 9, 4.0 μg/kg i.p. daily for ten days with 5-FU): 5/7
Survivors Day 8 ([4]; Example 9, 40.0 μg/kg i.p. daily for ten days with 5-FU): 4/7
Survivors Day 8 [4, 16]: 6/10
Survivors Day 15 [4, 16]: 4/10
Survivors Day 8 [4, 17]: 9/10
Survivors Day 15 [4, 17]: 8/10
Survivors Day 8 [4, 18]: 9/10
Survivors Day 15 [4, 18]: 8/10
Survivors Day 8 [4, 19]: 6/10
Survivors Day 15 [4, 19]: 4/10
Survivors Day 8 [4, 20]: 9/10
Survivors Day 15 [4, 20]: 8/10
Survivors Day 8 [4, 21]: 9/10
Survivors Day 15 [4, 21]: 8/10
Survivors at Day 8 after infection ([4]; 0.4 μg/kg/day): 6/7
Survivors at Day 8 after infection ([4]; 4 μg/kg/day): 5/7
Survivors at Day 8 after infection ([4]; 40 μg/kg/day): 4/7
Growth of Bacteria (log10 /liver) ([5]; 0.4 μg/kg/day): 6.0 log10 /liver
Growth of Bacteria (log10 /liver) ([5]; 4 μg/kg/day): 5.7 log10 /liver
growth of the bacteria in liver (in words) ([5]; tumor-bearing mice pretreated daily for seven times before infection): growth of the bacteria was suppressed
Mean Survival days (days ± S.D.) (P388 leukemia; 0.4 μg/kg/day ip. 14 times): 22.3 ± 2.8 days
Mean Survival days (days ± S.D.) (P388 leukemia; 4 μg/kg/day ip. 14 times): 23.7 ± 2.9 days
survival days (in words) (P388 leukemia; daily treatment in addition to 5-FU, 8 times before and 6 times after the transplant): increased the survival days to the level similar to that obtained in normal mice
